A melting point compilation (Tetko et al.; mined from patent text by program, amines drawn as free bases though some values may be those of a salt)

melting point | SMILES
167 to 170 °C | CC(NC(=O)CSC(=O)c1ccccc1)C(=O)NCC(=O)NCC(=O)O (centres undefined)
289 to 290 °C | Cc1[nH]cnc1C=C1CC2CCCn3c2c(c2ccccc23)C1=O (centres undefined)
173 to 180 °C | CCN(CC)CC(=O)OC1CC2(C)C(C(C)=O)CCC2C2CCC3CC(O)C(SC#N)CC3(C)C12 (centres undefined)
270 to 272 °C | CCCCn1c(=O)c2c(NC)n[nH]c2n(CCCl)c1=O
220 to 222 °C | COc1nc(-c2ccccc2)c2c(n1)N(c1ccccc1)C(=O)NC2
144 to 146 °C | Cc1cccc(C)c1N1C(=O)C(=O)N(C)C1=S
88 to 89 °C | NC[C@@H]1C[C@@H](SC(c2ccccc2)(c2ccccc2)c2ccccc2)CN1S(=O)(=O)c1ccc2ccccc2c1
155 to 157 °C | O=C1CCC(N2Cc3c(OCc4cn5cc(CN6CCOCC6)ccc5n4)cccc3C2=O)C(=O)N1 (centres undefined)
280 to 289 °C | COc1ccc(/C=C/c2ccc3c(=O)[nH]ncc3c2)cc1
150 °C | CC(C)(C)[S@](=O)N1CCC[C@@H]1c1ccc(O)cc1
> 260 °C | Cc1cc(C)cc(Oc2c(C=O)c(C)[nH]c(=O)c2I)c1
223 to 225 °C | OCC(O)Cn1cnc2c(Cl)nc3ccccc3c21 (centres undefined)
211 to 212 °C | CC(C)(C)c1ccc(Sc2ccc(C=C3SC(=S)NC3=O)cc2)cc1
110 °C | CC(C)(CO)[C@@H](O)C#N
89 to 90 °C | CCCCCCCCCCCCCCCCCCOc1cc(NC(C)=O)cc(N(CC(=O)OCc2ccccc2)CC(=O)OCc2ccccc2)c1
120 to 122 °C | CCSc1cc(C)nc(SCC)c1NC(=O)CN1CCN(CCSc2nc3c(C)c(Cl)cc(C(C)C)c3o2)CC1
259 to 260 °C | N#Cc1c(-c2cccc(N)c2)cc(-c2ccccc2O)nc1NC(=O)c1ccc(Cl)s1
220 to 221 °C | CON=C1CN(c2c(F)cc3c(=O)c(C(=O)O)cn(C4CC4)c3c2Cl)CC12CNC2
143 to 150 °C | CCOC(=O)N[C@@H](C(=O)O)c1ccccc1
68 to 71 °C | Brc1ccc(CN2CCOCC2)cc1
117 to 118 °C | O=C1C[C@@H](NC(=O)OCc2ccccc2)C(=O)N1
96 to 98 °C | COc1cccc2c1cc(C(=O)OCc1ccccc1)n2CC(=O)OC(C)(C)C
107 to 108 °C | COc1cc(C=O)ccc1OCc1ccc2ccccc2c1
199 to 201 °C | C[C@]12CCC(=O)N[C@@H]1CCc1cc(Sc3cccc4ccccc34)ccc12

melting point | SMILES
66.5 to 67.5 °C | COC(=O)c1ccccc1NN=Cc1ccccc1
246 to 250 °C | CCCCCCCCCCOc1ccc(-c2ccc(C(=O)O)cc2)cc1
116 to 120 °C | CC(C)OC(=O)c1cc(-n2c(=O)c3c(n(C)c2=O)CCC3)c(F)cc1Br
264 to 268 °C | Cc1cc(C)c2c(n1)Nc1cc(C)c(C)cc1NC2=O
57 to 60 °C | CCSC(C)(C)C(=O)CC(=O)Nc1cc(NC(=O)CCCOc2ccc(C(C)(C)CC)cc2C(C)(C)CC)ccc1OC
222 to 224 °C | CS(=O)(=O)c1ccc(-c2nc3n(c2-c2ccncc2)CCC3)cc1
189 °C | O=C(Nc1ccc(CNc2nc(NC3CC3)nc3ccccc23)cc1)c1ccc(F)cc1
209 to 212 °C | COc1cc(Nc2c(C#N)cnc3cc(-c4csc(CN5CCOCC5)c4)sc23)c(Cl)cc1Cl
227 to 228 °C | COc1c2occc2cc2cc(C(=O)O)c(=O)oc12
189 to 190 °C | NCCC1Cc2ccc(C3=NNC(=O)CC3)cc2C1 (centres undefined)
118 to 121 °C | O=C1N(Cc2ccc(NC3CCNC3)cc2)c2ccccc2C12COc1cc3c(cc12)OCO3 (centres undefined)
189 to 190 °C | O=C(O)COc1cc2c(c(Cl)c1Cl)C(=O)C(c1ccc(F)cc1)C2 (centres undefined)
44 to 46 °C | COC(=O)CCC#Cc1ccccc1[N+](=O)[O-]
158 °C | CC(C)n1nc(-c2c(-c3ccccc3)nn3ccc(OCCN4C[C@@H](C)O[C@@H](C)C4)cc23)ccc1=O
142 to 144 °C | CS(=O)(=O)n1ccc2cc3c(cc21)C(C#N)C3 (centres undefined)
212 to 214 °C | CCOCCOc1ccc(-c2ccc3c(c2)C=C(C(=O)Nc2ccc(CN(C)C4CCOCC4)cc2)CCS3(=O)=O)cc1F
177 to 179 °C | Cc1cc(C(=O)NCc2cccc([N+](=O)[O-])c2)c(OCC(=O)O)cc1F
173 to 174 °C | CC(C)C(C#N)C(=O)NC(N)=O (centres undefined)
115 to 117 °C | O=c1[nH]c2cccc(OCC(O)CNCCc3ccc(-n4c(CCC5CCCC5)nc5cccnc54)cc3)c2[nH]1 (centres undefined)
113 to 116 °C | CCOC(=O)CSc1nc(N)cc(Cl)n1
195 °C | CC(C)(C(=O)O)C1CCN(Cc2ccccc2)CC1
96.5 to 97.5 °C | CCOC(=O)N1CCN(C2=Nc3ccccc3Sc3ccc(Cl)cc32)CC1
159 to 160 °C | CCC(=S)NC[C@H]1CN(c2ccc(N3CCN(C(=O)COc4ccc(CN5CCOCC5)cc4)CC3)c(F)c2)C(=O)O1
202 to 204 °C | CNC(=O)c1sc(C(C)(C)C)cc1NC(=O)Nc1ccc(C)cc1

melting point | SMILES
89 to 90 °C | CCOC(=O)c1cccc(-c2ccc3c(c2)C(=O)CCC3)c1
193 °C | O=C(Nc1c(Br)cc(Br)cc1C(=O)NCC1CCCCC1)N[C@@H](Cc1ccc(NC(=O)c2c(Cl)cccc2Cl)cc1)C(=O)O
195 to 196 °C | CN(C)c1nc2sc3c(NCCN4CCOCC4)ncnc3c2c2c1COC(C)(C)C2
101 to 103 °C | COc1ccc(/C(C#N)=C/c2ccc(OC)c(OC3CCCC3)c2)cc1OC
149 to 152 °C | CCOC(=O)c1cccc(NC(=O)c2sc(NC(=N)N)nc2C)c1
114 to 116 °C | COc1ccc2c(c1)CCC1C2=CCC2(C)C(OC(C)=O)CCC12 (centres undefined)
138 to 139 °C | CC(=O)N(C)C12CCCCC1Oc1ccccc12 (centres undefined)
110 to 115 °C | O=C1C(=O)c2ccccc2C2=C1SCC1(CCN(C(=O)C=Cc3ccccc3Cl)CC1)O2
134 °C | COc1cc(C(CBr)(OC)OC)ccc1OS(=O)(=O)c1ccccc1
161 to 163 °C | C=CCN1C(=O)N(CC=C)[C@@H](C(=O)O)[C@H]1C(=O)O
175 to 176 °C | Cc1cc(C[C@@H](NC(=O)c2cccc3c2C=CCCC3)[C@@H](O)c2ccc(F)cc2)cc(OC(F)(F)C(F)F)c1 (racemic)
56.1 to 58.7 °C | COc1ccccc1C(=O)Nc1ccc(Cl)cc1
174 to 175 °C | CS(=O)(=O)Nc1ccc(C(N)=NO)cc1Oc1ccc(F)cc1F
214 to 216 °C | COCOc1cc(Cl)ccc1-c1cc(-c2cccc(C(=O)O)c2)c(C#N)c(NC(=O)c2ccco2)n1
229 to 231 °C | CCc1cccc(CC)c1NC(=O)Nc1sc2cc(OC)c(OC)cc2c1-c1ccccc1Cl
215 °C | CNC(=S)N1CCc2[nH]cnc2C1c1cccs1 (centres undefined)
123 to 125 °C | NC(=O)c1c(Cl)c(-c2ccccc2)n2c1CN(S(=O)(=O)c1ccc(Cl)cc1)CC2
162 to 164 °C | COc1cc2c(cc1OC)CN(CCc1ccc(-c3ccccc3)cc1)CC2
269 to 271 °C | Cc1c(-c2ccccc2)[nH]c(=O)n1C1CCN(Cc2cccc(I)c2)CC1
212 to 213 °C | Cc1c2c(c(C)c(NC(=O)CC(C)(C)C)c1-c1ccccc1)C(c1ccc(C(C)C)cc1)CO2 (centres undefined)
171 to 172 °C | CC(O)c1c(Cl)nc2n(c1=O)CCS2 (centres undefined)
162 °C | C=C(c1cc(OC)c(O)c2c(Cc3ccccc3)cccc12)C(C)(C)C(=O)O
208 to 212 °C | CC(C)c1ccc(/C=C/c2cc(/C=C/c3ccc4cc[nH]c4c3)n[nH]2)cc1
96.5 to 97.3 °C | CCC[C@H]1CC[C@H](c2ccc(-c3ccccc3)c(F)c2)CC1

melting point | SMILES
114 to 115 °C | Cc1ccc(C(O)c2ccc(N)cc2)nc1 (centres undefined)
131 to 134 °C | COc1ccc2snnc2c1S(=O)(=O)Cl
71 to 74 °C | COc1ccc2c(c1[N+](=O)[O-])CN(C(=O)C(F)(F)F)CC(=O)N2C
269 to 270 °C | CS(=O)(=O)NC1CCC(NC(=O)c2ccc(F)cc2)CC1 (centres undefined)
157 to 158 °C | Fc1cccc2c(NCCc3cccs3)ccnc12
208 to 210 °C | Clc1ccc2nc(-c3cccs3)c(-c3ccncc3)n2n1
112 to 114 °C | N#CCSc1nc2ccc(Cl)nc2s1
114 to 116 °C | CCCc1c(OCCCSc2ccc(-c3nnn[nH]3)cc2)ccc(C(C)=O)c1O
223 to 225 °C | Cc1ccc(Cn2nnc(C(N)=O)c2N)cc1
122 °C | CCCC1COc2cc(C3COc4cc(C#N)c(F)cc4C3)c(F)cc2C1 (centres undefined)
110 to 111 °C | Cc1cccc(C(N)=NO)c1C
174 °C | O=C(NCCN(CCNC(=O)OCCO)c1nc(Cl)nc(N(CCNC(=O)OCCO)CCNC(=O)OCCO)n1)OCCO
107 to 108 °C | CCOC(=O)c1ccc(NC(=O)CCCCCc2ccc(Cl)cc2)cc1
92 to 95 °C | CC(C)C[C@H](NC(=O)CCOc1ccccc1)C(=O)N[C@@H](C(C)C)[C@@H](O)c1c(-c2ccccc2)c1=O
115 to 116 °C | CSc1ccc(CCN2CCN(C(=O)c3ccc(N(CCOC(C)C)C(=O)CCl)cc3)CC2)cc1
192 to 194 °C | COc1ccccc1N1CCN(CC(O)CCN2C(=O)c3ccccc3C2=O)CC1 (centres undefined)
214 to 217 °C | CC(c1oc2ccccc2c(=O)c1-c1ccccc1)n1nc(-c2cn[nH]c2)c2c(N)ncnc21 (centres undefined)
143 °C | CCCCC(CC)COc1ccc(-n2c(C)cc(=O)cc2C)cc1 (centres undefined)
180 to 182 °C | Nc1nc2ccc(Sc3ccccc3)cc2s1
237 to 238 °C | CC1(C)COP(=O)(O)OC1c1ccc2ccccc2c1 (centres undefined)
293 °C | COC(=O)c1ccc(-c2cc(C)c3[nH]c(=O)ccc3c2)cc1
60 to 67 °C | CC(C)=CCOC(C)C1CC=C2C3=C(CCC21C)C1(C)CCC(OC(=O)CCC(=O)O)C(C)(C)C1CC3 (centres undefined)
> 300 °C | COCCn1cc2c(C3C(=O)Nc4ccc(Br)cc43)nc(NCC(C)O)nc2n1 (centres undefined)
133 to 135 °C | CCOC(=O)c1ccc(NCCOc2cccc3c2CCCC3)cc1

SMILES | melting point
CN1C(C)(C)CC(OP2OCC3(CO2)COP(OC2CC(C)(C)N(C)C(C)(C)C2)OC3)CC1(C)C (centres undefined) | 106 °C
CN1CCN(Cc2nc3ccccc3[nH]2)CC1 | 179 to 183 °C
CO[C@@H]1C[C@H](C)N(c2ccc(C#N)c3ccccc23)C1 | 88 to 89 °C
